Molecules are shown by their SMILES. ≈ marks a conversion by molar mass, not a printed value. Like-named read-outs stand apart in the source and are kept apart here.

Assay [1] deals with HCMV recombinant mutant virus. Kind of assay: microbe, parasite or virus in culture. In kind it is cell-based, human cytomegalovirus. The conditions noted are these: Human betaherpesvirus 5, read-out: IC50 (ug/ml) HCMV. The text has this:
Microtiter plate assay. Ninety-six well plate cultures of human foreskin fibroblasts are infected in the presence of inhibitor compound with a HCMV recombinant mutant virus whose genome contains the prokaryotic beta-glucuronidase gene (Jefferson, R. A., S. M. Burgess, and D. Hirsh. 1986. Beta-glucuronidase from Escherichia coli as a gene fusion marker. Proc. Natl. Acad. Sci. USA 83:8447-8451) whose expression is controlled by a viral promoter. An example of such a virus is RV145 (Jones, T. R., V. P. Muzithras, and Y. Gluzman. 1991. Replacement mutagenesis of the human cytomegalovirus genome: US10 and US11 gene products are nonessential. J. Virol. 65:5860-5872). Since it is under the control of a viral promoter, beta-glucuronidase expression is an indirect indicator of growth and replication of HCMV in this assay. At 96 hours post-infection, the infected cell lysates are prepared (using 50mM sodium phosphate [pH7.0] containing 0.1 % Triton X-100 and 0.1% sarkosyl) and assayed for beta-glucuronidase activity using a substrate for the enzyme which when cleaved yields either a product which can be measured colorimetrically in a spectrophotometer or fluorescently in a microfluorimeter. Examples of such substrates are p-nitrophenyl-beta-D-glucuronide and methylumbelliferylglucuronide, respectively. The presence of an antiviral compound is indicated by the reduced expression of the HCMV genome resident beta-glucuronidase gene, compared to the absence of inhibitor. […] Data from this assay generated using varying amounts of inhibitor compound is also used to estimate the IC50 of an inhibitor compound.

The next assay concerns HSV-1. Description: HSV antiviral (ELISA) assay in Vero cells. The class given is cell-based, herpes simplex virus type 1. The following applies: read-out: IC50 (ug/ml) HSV. The protocol:
HSV antiviral (ELISA) assay
Vero cells (ATCC #CCL-81) are plated on 96-well tissue culture plates at 3.5x10^4 cells per 100µl tissue culture DMEM (Dulbecco's modified Eagle media) supplemented with 2% fetal bovine serum (FBS) in each well. After overnight incubation @ 37°C (in 5% CO2) and 30 minutes prior to infection with HSV-1 (multiplicity of infection equal to 0.006), cells are either untreated, or treated with test compound (multiple concentrations) or reference standard drug control. After approximately 24 hours post-infection incubation @ 37°C (in 5% CO2), cells are fixed for ELISA assay. The primary antibody is murine anti-HSV glycoprotein D monoclonal primary antibody and the secondary antibody is goat anti-mouse IgG linked to β-galactosidase. Thus the extent of viral replication is determined by assessing β-galactosidase activity by quantifying the generation of the 4-methyl umbelliferone fluorescent cleavage product after addition of the methyl umbelliferyl-β-D-galactoside (Sigma #M1633) substrate on a microfluorimeter (365nm for excitation and 450nm for emission). Antiviral activity (IC50) of the test compound is determined by comparing the flourescence obtained in absence of compound to that obtained in the presence of compound.
A general note: An ELISA detects its analyte on a solid surface through an enzyme-linked reagent.

The next assay deals with VZV strain Ellen. Kind of assay: VZV antiviral (ELISA) assay in human foreskin fibroblast cells. The class given is cell-based, varicella-zoster virus. The following applies: for IC50: read-out: IC50 (ug/ml) VZV; for inhibition at 10 µg/mL: Human alphaherpesvirus 3, Fibroblast, read-out: % inhibition 10 ug/ml VZV. As for the experimental part:
VZV antiviral (ELISA) assay
For the generation of stock VZV to be used in the assay, VZV strain Ellen (ATCC #VR-1367) is used to infect human foreskin fibroblast (HFF) cells at low multiplicity (less than 0.1) and incubated overnight at 37°C in 5% CO2. After the overnight incubation, the mixture of uninfected and VZV-infected HFF infected cells are then harvested and added to each well of 96-well plates (3.5x10^4 cells in 100 µl DMEM supplemented with 2% FBS) which contain test compound or the reference standard drug control (in 100µl DMEM supplemented with 2% FBS per well). These cells are incubated for three days at 37°C in 5% CO2, then fixed for ELISA assay. The primary antibody is murine anti-VZV glycoprotein II monoclonal antibody (Applied Biosystems, Inc. #13-145-100) and the secondary antibody is goat anti-mouse IgG linked to β-galactosidase. Thus the extent of viral replication is determined by assessing β-galactosidase activity by quantifying the generation of the 4-methyl umbelliferone fluorescent cleavage product after addition of the methyl umbelliferyl-β-D-galactoside (Sigma #M1633) substrate on a microfluorimeter (365nm for excitation and 450nm for emission). Antiviral activity (IC50) of the test compound is determined by comparing the flourescence obtained in absence of compound to that obtained in the presence of compound.

The mark [2] stands for this setting: Human alphaherpesvirus 1, HSV-1 in Vero cells.
[3] abbreviates: Human alphaherpesvirus 3, VZV strain Ellen in HFF cells.

On to `CC(NC(=S)Nc1ccc(NC(=O)c2cc3ccccc3cn2)c(C#N)c1)c1ccc(F)cc1` (stereo not drawn) [Example 1071, Isoquinoline-3-carboxylic acid (2-cyano-4-{3-[1-(4-fluoro-phenyl)-ethyl]-thioureido}-phenyl)-amide], for which the figures for the IC50 (in assay [1]; with HSV-1 (setting [2]); in the assay on VZV strain Ellen (setting [3])) were above 10 µg/mL, 9 µg/mL (≈ 19.2 µM) and 0.03 µg/mL (≈ 0.0639 µM), respectively.

On to `CC(NC(=S)Nc1ccc(NC(=O)c2ccccc2F)c(N(C)C)c1)c1ccc(F)cc1` (stereo not drawn) [Example 1049, N-(2-Dimethylamino-4-{3-[1-(4-fluoro-phenyl)-ethyl]-thioureido}-phenyl)-2-fluoro-benzamide], for which the IC50 in assay [1] worked out at 4.5 µg/mL (≈ 9.9 µM); with HSV-1 (setting [2]), 8 µg/mL (≈ 17.6 µM); in the assay on VZV strain Ellen (setting [3]) it was 0.07 µg/mL (≈ 0.154 µM).

Regarding `COc1cc(OC)c(NC(=S)Nc2ccc(NC(=O)c3ccccc3F)cc2OC)cc1Cl` [Example 389, N-{4-[3-(5-Chloro-2,4-dimethoxy-phenyl)-thioureido]-3-methoxy-phenyl}-2-fluoro-benzamide], the IC50 in assay [1] is 1.5 µg/mL (≈ 3.06 µM); in the assay with HSV-1 (setting [2]) it was 0.04 µg/mL (≈ 0.0816 µM); in the assay with VZV strain Ellen (setting [3]), above 10 µg/mL. The inhibition at 10 µg/mL in the assay on VZV strain Ellen turned out to be 9%.

Turning to `CCOc1cc(NC(=S)NC(C)c2ccc(C#N)cc2)ccc1NC(=O)c1ccccc1F` (stereo not drawn) [Example 1061, N-(4-{3-[1-(4-Cyano-phenyl)-ethyl]-thioureido}-2-ethoxy-phenyl)-2-fluoro-benzamide], the IC50 in assay [1] is 7.6 µg/mL (≈ 16.4 µM); with HSV-1 (setting [2]) it was above 10 µg/mL; in the assay with VZV strain Ellen (setting [3]), 0.64 µg/mL (≈ 1.38 µM).

As to `CC(NC(=S)Nc1ccc(NC(=O)c2ccccc2F)c(Cl)c1)c1ccc(F)cc1` (stereo not drawn) [Example 1038, N-(2-Chloro-4-{3-[1-(4-fluoro-phenyl)-ethyl]-thioureido}-phenyl)-2-fluoro-benzamide], the IC50 was found to be 3.5 µg/mL (≈ 7.85 µM) in assay [1], 3 µg/mL (≈ 6.73 µM) in the assay with HSV-1 (setting [2]) and 0.04 µg/mL (≈ 0.0897 µM) in the assay on VZV strain Ellen (setting [3]).

As to `CC(NC(=S)Nc1ccc(NC(=O)c2ccccc2F)c(OCc2ccccc2)c1)c1ccc(C#N)cc1` (stereo not drawn) [Example 1050, N-(2-Benzyloxy-4-{3-[1-(4-cyano-phenyl)-ethyl]-thioureido}-phenyl)-2-fluoro-benzamide], the IC50 in assay [1] is above 10 µg/mL; in the assay with HSV-1 (setting [2]), above 10 µg/mL; with VZV strain Ellen (setting [3]), above 7.5 µg/mL.

`CC(NC(=S)Nc1ccc(NC(=O)c2ccccc2F)c(-c2ccccc2)c1)c1ccc(F)cc1` (stereo not drawn) [Example 1065, 2-Fluoro-N-(5-{3-[1-(4-fluoro-phenyl)-ethyl)-thioureido}-biphenyl-2-yl)-benzamide]: the IC50 in assay [1] is 8.1 µg/mL (≈ 16.6 µM); in the assay on HSV-1 (Human alphaherpesvirus 1, Vero) it was 4.9 µg/mL (≈ 10 µM); in the assay with VZV strain Ellen (Human alphaherpesvirus 3, HFF) it was 0.33 µg/mL (≈ 0.677 µM).

Turning to `COc1cc(OC)c(NC(=S)Nc2ccc(NC(=O)c3ccccc3F)cc2C#N)cc1Cl` [Example 381, N-{4-[3-(5-Chloro-2,4-dimethoxy-phenyl)-thioureido]-3-cyano-phenyl}-2-fluoro-benzamide], the IC50 (in assay [1]; in the assay on HSV-1 (setting [2]); in the assay with VZV strain Ellen (setting [3])) was above 10 µg/mL throughout. In addition, the inhibition at 10 µg/mL in the assay on VZV strain Ellen is 13%.

With `CCOc1cc(NC(=S)NC(C)c2ccc(F)cc2)ccc1NC(=O)c1ccccc1F` (stereo not drawn) [Example 1060, N-(2-Ethoxy-4-{3-[1-(4-fluoro-phenyl)-ethyl]-thioureido}-phenyl)-2-fluoro-benzamide], the IC50 in assay [1] is above 10 µg/mL; in the assay with HSV-1 (setting [2]) it was above 10 µg/mL; in the assay on VZV strain Ellen (setting [3]), 0.26 µg/mL (≈ 0.571 µM).

For `COc1cc(OC)c(NC(=S)Nc2ccc(NC(=O)c3ccccc3F)c(C(F)(F)F)c2)cc1Cl` [Example 402, N-{4-[3-(5-Chloro-2,4-dimethoxy-phenyl)-thioureido]-2-trifluoromethyl-phenyl}-2-fluoro-benzamide], the IC50 in assay [1] was 4 µg/mL (≈ 7.58 µM); in the assay on HSV-1 (setting [2]) it was above 10 µg/mL; with VZV strain Ellen (setting [3]), above 10 µg/mL. Besides, the inhibition at 10 µg/mL with VZV strain Ellen was 13%.

On to `Cc1cc(NC(=S)NC(C)c2ccc(F)cc2)ccc1NC(=O)c1ccccc1F` (stereo not drawn) [Example 1045, 2-Fluoro-N-(4-{3-[1-(4-fluoro-phenyl)-ethyl]-thioureido}-2-methyl-phenyl)-benzamide], for which the IC50 in assay [1] worked out at 1.5 µg/mL (≈ 3.53 µM); in the assay with HSV-1 (setting [2]), 6.2 µg/mL (≈ 14.6 µM); in the assay with VZV strain Ellen (setting [3]), 0.05 µg/mL (≈ 0.118 µM).

(Values after patent publication EP1137632B1, “THIOUREA INHIBITORS OF HERPES VIRUSES” (Wyeth, priority 1998, dated 2000).)
